# Source: patent US8822464B2, “N-aryl-piperazine derivatives and their use as positive allosteric modulators of mGluR5 receptors” (Boehringer Ingelheim International GmbH, priority 2011, dated 2014)
# Molecular target: T1, human recombinant mGluR5 (Homo sapiens, UniProt P41594)
# T1 construct: expressed in transfected cells; host or cells: HEK 293 cell line; cultured with tetracycline, hygromycin and geneticin; tetracycline withdrawn 3-7 days before the assay
# Assay: positive modulation of mGluR5, calcium based FLIPR assay in HEK 293 cells
# Details: HEK 293 cell line expressing human recombinant mGluR5; peak height of Ca release fluorescence signal after glutamate at approximately 5% basal stimulation; nonlinear regression
# Procedure, shortened: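 HEK 293 cells expressing human mGluR5, tetracycline-free 3-7 days, Calcium-4 dye-loaded in Ringer solution pH 7.4; 1% DMSO final. Compound added 5 min before glutamate at ~5% of maximal effect; peak Ca2+ fluorescence normalized to basal glutamate (100%) and 10 μM CDPPB (200%); EC50 by nonlinear regression.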
# T1 sequence (P41594 21-1212): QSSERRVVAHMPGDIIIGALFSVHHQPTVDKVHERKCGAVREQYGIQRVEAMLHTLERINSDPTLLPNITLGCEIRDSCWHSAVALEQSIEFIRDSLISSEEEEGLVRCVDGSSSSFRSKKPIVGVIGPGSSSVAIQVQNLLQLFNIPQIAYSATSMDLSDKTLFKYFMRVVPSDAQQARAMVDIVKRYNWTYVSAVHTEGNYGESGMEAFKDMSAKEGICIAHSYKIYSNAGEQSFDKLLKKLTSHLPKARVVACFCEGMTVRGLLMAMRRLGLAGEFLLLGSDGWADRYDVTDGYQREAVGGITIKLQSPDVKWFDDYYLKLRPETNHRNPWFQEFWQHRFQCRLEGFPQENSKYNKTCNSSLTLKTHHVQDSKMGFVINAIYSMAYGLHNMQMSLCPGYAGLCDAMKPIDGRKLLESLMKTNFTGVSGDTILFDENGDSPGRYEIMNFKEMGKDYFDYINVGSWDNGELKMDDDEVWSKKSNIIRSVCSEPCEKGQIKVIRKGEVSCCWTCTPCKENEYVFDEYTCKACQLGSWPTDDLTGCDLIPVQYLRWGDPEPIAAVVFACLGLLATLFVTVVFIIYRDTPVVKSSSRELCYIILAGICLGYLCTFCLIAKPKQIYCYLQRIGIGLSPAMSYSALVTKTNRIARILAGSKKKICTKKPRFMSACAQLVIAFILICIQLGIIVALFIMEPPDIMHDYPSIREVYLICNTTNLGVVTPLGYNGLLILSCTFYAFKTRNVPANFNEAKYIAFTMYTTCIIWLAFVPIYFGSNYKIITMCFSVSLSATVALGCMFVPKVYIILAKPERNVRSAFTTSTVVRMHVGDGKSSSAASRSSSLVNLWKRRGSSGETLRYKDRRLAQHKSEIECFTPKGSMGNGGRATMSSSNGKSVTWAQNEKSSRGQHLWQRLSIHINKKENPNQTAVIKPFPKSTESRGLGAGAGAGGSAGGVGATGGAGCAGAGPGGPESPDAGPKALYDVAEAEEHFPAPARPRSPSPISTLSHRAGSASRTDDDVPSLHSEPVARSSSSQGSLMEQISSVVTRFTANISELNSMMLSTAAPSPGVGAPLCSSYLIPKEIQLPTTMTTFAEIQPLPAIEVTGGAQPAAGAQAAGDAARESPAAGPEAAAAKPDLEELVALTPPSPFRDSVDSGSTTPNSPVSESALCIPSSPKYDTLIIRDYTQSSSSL
row,Structure (SMILES),EC50
1,CCc1cc(-c2cccc(C#N)c2)nn1CC(=O)N1CCN(c2ncc(OC)cn2)CC1 [Example 7.01.162],343 nM
2,CCc1cc(-c2cccc(C#N)c2)nn1CC(=O)N1CCN(c2cc(OC)ncn2)CC1 [Example 7.01.163],490 nM
3,COc1cc(N2CCN(C(=O)Cn3nc(-c4ccc(OC(F)F)cc4)cc3-c3ccccc3)CC2)ncn1 [Example 7.01.176],10 nM
4,COc1cc(N2CCN(C(=O)Cn3nc(-c4ccc(OC(F)F)cn4)cc3-c3ccccc3)CC2)ncn1 [Example 7.01.180],64 nM
5,CCc1cc(-c2ccc(C)c(F)c2)nn1CC(=O)N1CCN(c2ncccn2)CC1 [Example 7.01.181],130 nM
6,CCc1cc(-c2ccc(C)c(F)c2)nn1CC(=O)N1CCN(c2ccccn2)CC1 [Example 7.01.182],434 nM
7,CCc1cc(-c2ccc(C)c(F)c2)nn1CC(=O)N1CCN(c2cc(OC)ncn2)CC1 [Example 7.01.183],318 nM
8,COc1cc(N2CCN(C(=O)Cn3nc(-c4ccc(OC)c(C)c4)cc3-c3ccccc3)CC2)ncn1 [Example 7.01.184],145 nM
9,CCCc1cc(-c2ccc(F)c(C)n2)nn1CC(=O)N1CCN(c2ncccn2)CC1 [Example 7.01.185],442 nM
10,CCCc1cc(-c2ccc(F)c(C)n2)nn1CC(=O)N1CCN(c2ccccn2)CC1 [Example 7.01.186],441 nM
11,CCCc1cc(-c2ccc(F)c(C)n2)nn1CC(=O)N1CCN(c2cc(OC)ncn2)CC1 [Example 7.01.187],360 nM
12,COc1cc(N2CCN(C(=O)Cn3nc(-c4ccc(C)c(F)c4)cc3-c3ccccc3)CC2)ncn1 [Example 7.01.190],47 nM
13,COCc1cc(-c2ccc(F)c(C)c2)nn1CC(=O)N1CCN(c2ncccn2)CC1 [Example 7.02.15],153 nM
14,COCc1cc(-c2ccc(F)c(C)c2)nn1CC(=O)N1CCN(c2ccccn2)CC1 [Example 7.02.16],237 nM
15,COCc1cc(-c2ccc(F)c(C)c2)nn1CC(=O)N1CCN(c2cc(OC)ccn2)CC1 [Example 7.02.17],182 nM
16,COCc1cc(-c2ccc(F)c(C)c2)nn1CC(=O)N1CCN(c2cc(OC)ncn2)CC1 [Example 7.02.18],211 nM
17,COCc1cc(-c2ccc(F)c(C)c2)nn1CC(=O)N1CCN(c2cccnn2)CC1 [Example 7.02.19],1200 nM
18,COCc1cc(-c2ccc(F)c(C)c2)nn1CC(=O)N1CCN(c2ncnc3[nH]cnc23)CC1 [Example 7.02.20],183 nM
19,Cc1cc(-c2cc(C)n(CC(=O)N3CCN(c4ccccn4)CC3)n2)ccc1F [Example 7.02.21],77 nM
20,COc1ccnc(N2CCN(C(=O)Cn3nc(-c4ccc(F)c(C)c4)cc3C)CC2)c1 [Example 7.02.22],85 nM
21,COc1cc(N2CCN(C(=O)Cn3nc(-c4ccc(F)c(C)c4)cc3C)CC2)ncn1 [Example 7.02.23],60 nM
22,Cc1cc(-c2cc(C)n(CC(=O)N3CCN(c4cccnn4)CC3)n2)ccc1F [Example 7.02.24],340 nM
23,Cc1cc(-c2cc(C)n(CC(=O)N3CCN(c4ncnc5[nH]cnc45)CC3)n2)ccc1F [Example 7.02.25],92 nM
24,COc1cnc(N2CCN(C(=O)Cn3nc(-c4ccc(F)c(C)c4)cc3C)CC2)nc1 [Example 7.02.26],36 nM
25,COc1ccc(-c2cc(-c3ccc(OC)cc3)n(CC(=O)N3CCN(c4ncccn4)CC3)n2)cc1 [Example 7.03.01],31 nM
26,O=C(Cn1nc(C2CCCCC2)cc1-c1ccc(F)cc1)N1CCN(c2ncccn2)CC1 [Example 7.04.02],81 nM
27,"Cc1cc(-c2cc(-c3ccccc3)n(CC(=O)N3CCN(c4cc(OCCN5CCOCC5)ncn4)CC3)n2)ccc1F [Example 7.05.01, 2-[3-(4-fluoro-3-methyl-phenyl)-5-phenyl-pyrazol-1-yl]-1-{4-[6-(2-morpholin-4-yl-ethoxy)-pyrimidin-4-yl]-piperazin-1-yl}-ethanone]",40 nM
28,Cc1cc(-c2cc(-c3ccccc3)n(CC(=O)N3CCN(c4cc(OCC(C)O)ncn4)CC3)n2)ccc1F (stereo not drawn) [Example 7.05.02],38 nM

# Now from value to compound:
row,EC50,Structure (SMILES)
1,42 nM,Cc1cccc(-c2cc(-c3ccccc3)nn2CC(=O)N2CCN(c3ncccn3)CC2)c1 [Example 7.01.164]
2,4 nM,Cc1cccc(-c2cc(-c3ccccc3)n(CC(=O)N3CCN(c4ncccn4)CC3)n2)c1 [Example 7.01.165]
3,8 nM,Cc1cccc(-c2cc(-c3ccccc3)n(CC(=O)N3CCN(c4ccccn4)CC3)n2)c1 [Example 7.01.166]
4,7 nM,N#Cc1cccc(-c2cc(-c3ccccc3)n(CC(=O)N3CCN(c4ncccn4)CC3)n2)c1 [Example 7.01.167]
5,12 nM,N#Cc1cccc(-c2cc(-c3ccccc3)n(CC(=O)N3CCN(c4ccccn4)CC3)n2)c1 [Example 7.01.168]
6,11 nM,COc1cnc(N2CCN(C(=O)Cn3nc(-c4cccc(C#N)c4)cc3-c3ccccc3)CC2)nc1 [Example 7.01.169]
7,22 nM,COc1cc(N2CCN(C(=O)Cn3nc(-c4cccc(C#N)c4)cc3-c3ccccc3)CC2)ncn1 [Example 7.01.170]
8,9 nM,COc1cnc(N2CCN(C(=O)Cn3nc(-c4cccc(C)c4)cc3-c3ccccc3)CC2)nc1 [Example 7.01.171]
9,152 nM,N#Cc1cccc(-c2cc(-c3ccccc3)nn2CC(=O)N2CCN(c3ncccn3)CC2)c1 [Example 7.01.172]
10,11 nM,COc1cc(N2CCN(C(=O)Cn3nc(-c4cccc(C)c4)cc3-c3ccccc3)CC2)ncn1 [Example 7.01.173]
11,3 nM,O=C(Cn1nc(-c2ccc(OC(F)F)cc2)cc1-c1ccccc1)N1CCN(c2ncccn2)CC1 [Example 7.01.174]
12,10 nM,O=C(Cn1nc(-c2ccc(OC(F)F)cc2)cc1-c1ccccc1)N1CCN(c2ccccn2)CC1 [Example 7.01.175]
13,24 nM,COc1ccc(-c2cc(-c3ccccc3)n(CC(=O)N3CCN(c4ncccn4)CC3)n2)cc1C [Example 7.01.177]
14,21 nM,O=C(Cn1nc(-c2ccc(OC(F)F)cn2)cc1-c1ccccc1)N1CCN(c2ncccn2)CC1 [Example 7.01.178]
15,46 nM,O=C(Cn1nc(-c2ccc(OC(F)F)cn2)cc1-c1ccccc1)N1CCN(c2ccccn2)CC1 [Example 7.01.179]
16,27 nM,Cc1ccc(-c2cc(-c3ccccc3)n(CC(=O)N3CCN(c4ncccn4)CC3)n2)cc1F [Example 7.01.188]
17,48 nM,Cc1ccc(-c2cc(-c3ccccc3)n(CC(=O)N3CCN(c4ccccn4)CC3)n2)cc1F [Example 7.01.189]
18,7 nM,O=C(Cn1nc(-c2ccc(C(F)F)cc2)cc1-c1ccccc1)N1CCN(c2ncccn2)CC1 [Example 7.01.191]

row,EC50,Structure (SMILES)
1,15 nM,COc1cc(N2CCN(C(=O)Cn3nc(-c4ccc(C(F)F)cc4)cc3-c3ccccc3)CC2)ncn1 [Example 7.01.192]
2,35 nM,"O=C(Cn1nc(-c2ccccc2)cc1-c1ccccc1)N1CCN(c2ncccn2)CC1 [Example 7.02.01, 2-(3,5-diphenyl-pyrazol-1-yl)-1-(4-(2-pyrimidinyl)-1-piperazinyl)-ethanon]"
3,428 nM,O=C(Cn1nc(-c2ccccc2)cc1-c1ccccc1)N1CCN(c2cccnc2)CC1 [Example 7.02.02]
4,29 nM,O=C(Cn1nc(-c2ccccc2)cc1-c1ccccc1)N1CCN(c2ccccn2)CC1 [Example 7.02.03]
5,393 nM,O=C(Cn1nc(-c2ccccc2)cc1-c1ccccc1)N1CCN(c2ccccc2)CC1 [Example 7.02.04]
6,85 nM,O=C(Cn1nc(-c2ccccc2)cc1-c1ccccc1)N1CCN(c2cnccn2)CC1 [Example 7.02.05]
7,581 nM,O=C(Cn1nc(-c2ccccc2)cc1-c1ccccc1)N1CCN(c2cccnc2)CC1 [Example 7.02.06]
8,853 nM,O=C(Cn1nc(-c2ccccc2)cc1-c1ccccc1)N1CCN(c2cc3ccccc3cn2)CC1 [Example 7.02.07]
9,934 nM,N#Cc1ccc(N2CCN(C(=O)Cn3nc(-c4ccccc4)cc3-c3ccccc3)CC2)nc1 [Example 7.02.08]
10,298 nM,N#Cc1cccnc1N1CCN(C(=O)Cn2nc(-c3ccccc3)cc2-c2ccccc2)CC1 [Example 7.02.09]
11,91 nM,O=C(Cn1nc(-c2ccccc2)cc1-c1ccccc1)N1CCN(c2ncc(Br)cn2)CC1 [Example 7.02.11]
12,1260 nM,O=C(Cn1nc(-c2ccccc2)cc1-c1ccccc1)N1CCN(c2nccc(C(F)(F)F)n2)CC1 [Example 7.02.12]
13,696 nM,O=C(Cn1nc(-c2ccccc2)cc1-c1ccccc1)N1CCN(c2cc(C(F)(F)F)ccn2)CC1 [Example 7.02.13]
14,129 nM,O=C(Cn1nc(-c2ccccc2)cc1-c1ccccc1)N1CCN(c2ncncn2)CC1 [Example 7.02.14]
15,243 nM,Cc1cc(-c2cc(-c3ccccc3)n(CC(=O)N3CCN(c4ccccc4)CC3)n2)ccc1F [Example 7.02.27]
16,696 nM,O=C(Cn1nc(-c2ccccc2F)cc1-c1ccccc1F)N1CCN(c2ncccn2)CC1 [Example 7.04.01]
17,392 nM,COC(=O)c1ccc(-c2cc(-c3ccccc3)n(CC(=O)N3CCN(c4ncccn4)CC3)n2)cc1 [Example 7.04.03]
